Test results taken from ChEMBL document CHEMBL1156824, “Physicochemical space for optimum oral bioavailability: contribution of human intestinal absorption and first-pass elimination” (J Med Chem, 2010).

What was measured:
[1] = test system: Plasma; assay: Fraction unbound in human plasma
[2] = species on record: Homo sapiens; assay: Hepatic clearance in human; conditions: in vivo
[3] = clinical; conditions: human, in vivo
[4] = species on record: Homo sapiens; assay: in vitro; conditions: plasma
[5] = clinical; conditions: human, in vivo; remark: listed apart in the source
[6] = (§1) Volume of distribution at steady state in human; conditions: in vivo
[7] = test system: Homo sapiens; assay: Oral bioavailability in human; conditions: in vivo
[8] = species on record: Homo sapiens; assay: Fraction absorbed in human; conditions: in vivo
[9] = species on record: Homo sapiens; assay: Fraction escaping gut-wall elimination in human; conditions: in vivo
[10] = species on record: Homo sapiens; assay: Fraction escaping hepatic elimination in human; conditions: in vivo
[11] = species on record: Homo sapiens; conditions: in vivo
[12] = species on record: Homo sapiens; assay: as §1; conditions: in vivo

| Compound | Fu [1] | CL [2] | CL renal [3] | clearance [5] | also measured |
| --- | --- | --- | --- | --- | --- |
| CCCCC(=O)N(Cc1ccc(-c2ccccc2-c2nnn[nH]2)cc1)[C@H](C(=O)O)C(C)C | 0.04 | 0.3 mL/min/kg | 0.1 mL/min/kg |  |  |
| CO/N=C(\C(=O)N[C@@H]1C(=O)N2C(C(=O)O)=C(C)CS[C@H]12)c1csc(N)n1 |  | 0.4 mL/min/kg |  |  | fraction unbound [4]: 0.78 |
| Cc1cccc(C)c1NC(=O)NCCCNC(C)C |  | 2.2 mL/min/kg |  |  | fraction unbound [4]: 0.86 |
| C[C@@H]1[C@H](O)[C@@H](C)/C=C/C=C/C=C/C=C/C=C/C=C/C=C/[C@H](O[C@@H]2O[C@H](C)[C@@H](O)[C@H](N)[C@@H]2O)C[C@@H]2O[C@](O)(C[C@@H](O)C[C@@H](O)[C@H](O)CC[C@@H](O)C[C@@H](O)CC(=O)O[C@H]1C)C[C@H](O)[C@H]2C(=O)O [AMPHOTERICIN B] |  | 0.4 mL/min/kg | 0.0138 mL/min/kg | 0.46 mL/min/kg |  |
| O=C1C(O)=C([C@H]2CC[C@H](c3ccc(Cl)cc3)CC2)C(=O)c2ccccc21 [ATOVAQUONE] | 0.001 | 0.2 mL/min/kg |  |  | Vd [6]: 0.6 L/kg |
| CCc1cccc2cc(C(O)CNC(C)(C)C)oc12 (stereo not given) [BUFURALOL] |  | 8.9 mL/min/kg |  |  | F_fraction [7]: 0.43; Fa [8]: 1; Fg [9]: 0.7; Fh [10]: 0.61; CL_renal [11]: 0 mL/min/kg; fraction unbound [4]: 0.19 |
| CO/N=C(\C(=O)N[C@@H]1C(=O)N2C(C(=O)O)=C(CSc3nc(=O)c(=O)[nH]n3C)CS[C@H]12)c1csc(N)n1 [CEFTRIAXONE] | 0.052 | 0.1 mL/min/kg | 0.1 mL/min/kg |  |  |
| COCc1c(C(C)C)nc(C(C)C)c(/C=C/[C@@H](O)C[C@@H](O)CC(=O)O)c1-c1ccc(F)cc1 [CERIVASTATIN] |  | 2.9 mL/min/kg |  |  | CL_renal [11]: 0 mL/min/kg |
| Cc1onc(-c2ccccc2Cl)c1C(=O)N[C@@H]1C(=O)N2[C@@H]1SC(C)(C)[C@@H]2C(=O)O [CLOXACILLIN] |  | 0.6 mL/min/kg | 1 mL/min/kg | 1.6 mL/min/kg |  |
| CC(C)N(CCC(C(N)=O)(c1ccccc1)c1ccccn1)C(C)C (stereo not given) [DISOPYRAMIDE] | 0.16 | 0.4 mL/min/kg |  |  |  |
| COc1cc([C@@H]2c3cc4c(cc3[C@@H](O[C@@H]3O[C@@H]5CO[C@@H](C)O[C@H]5[C@H](O)[C@H]3O)[C@H]3COC(=O)[C@H]23)OCO4)cc(OC)c1O [ETOPOSIDE] |  | 0.3 mL/min/kg | 0.2 mL/min/kg | 0.5 mL/min/kg | Fh [10]: 0.99 |
| COc1ccc(Cl)cc1C(=O)NCCc1ccc(S(=O)(=O)NC(=O)NC2CCCCC2)cc1 [GLYBURIDE] | 0.021 | 0.8 mL/min/kg |  |  | Vd [6]: 0.08 L/kg |
| c1ccc2c(c1)OCC(C1=NCCN1)O2 (stereo not given) [IDAZOXAN] |  | 10 mL/min/kg |  | 10 mL/min/kg |  |
| C[C@@H](O)[C@H]1C(=O)N2C(C(=O)O)=C(SCCN=CN)C[C@H]12 [IMIPENEM ANHYDROUS] |  | 1.5 mL/min/kg | 1.5 mL/min/kg | 3 mL/min/kg |  |
| COc1ccc2c(c1)c(CC(=O)O)c(C)n2C(=O)c1ccc(Cl)cc1 [INDOMETHACIN] | 0.01 | 1.1 mL/min/kg |  |  |  |
| Nc1nnc(-c2cccc(Cl)c2Cl)c(N)n1 [LAMOTRIGINE] |  | 0.6 mL/min/kg | 0.042 mL/min/kg | 0.6 mL/min/kg | F_fraction [7]: 0.98 |

| Compound | Fu [1] | CL [2] | CL renal [3] | clearance [5] | also measured |
| --- | --- | --- | --- | --- | --- |
| CNC[C@H](O)CC12CCC(c3ccccc31)c1ccccc12 [LEVOPROTILINE] |  | 12.1 mL/min/kg | 0.2 mL/min/kg | 12.3 mL/min/kg |  |
| CCCCCN(CCCOC)C(=O)C(CCC(=O)O)NC(=O)c1ccc(Cl)c(Cl)c1 (stereo not given) [LOXIGLUMIDE] |  | 1 mL/min/kg | 0.022 mL/min/kg | 1 mL/min/kg |  |
| Cc1ncc2n1-c1ccc(Cl)cc1C(c1ccccc1F)=NC2 [MIDAZOLAM] |  | 5.3 mL/min/kg |  |  | F_fraction [7]: 0.38; CL_renal [11]: 0 mL/min/kg |
| CC(C)(C)NCC(O)COc1cccc2c1CC(O)C(O)C2 (stereo not given) [NADOLOL] | 0.14 | 1.1 mL/min/kg |  |  |  |
| COc1ccnc(C[S+]([O-])c2nc3ccc(OC(F)F)cc3[nH]2)c1OC (stereo not given) [PANTOPRAZOLE] |  | 2.2 mL/min/kg |  |  | Vdss [12]: 6.3 L/kg |
| O=C1NC(=O)C(c2ccccc2)(c2ccccc2)N1 [PHENYTOIN] |  | 0.4 mL/min/kg | 0.0074 mL/min/kg | 0.37 mL/min/kg | Fh [10]: 0.98 |
| CNC(=O)Oc1ccc2c(c1)[C@]1(C)CCN(C)[C@@H]1N2C [PHYSOSTIGMINE] |  | 5.5 mL/min/kg | 16.5 mL/min/kg | 22 mL/min/kg | F_fraction [7]: 0.01; Vd [6]: 0.66 L/kg |
| C[C@]12C=CC(=O)C=C1CC[C@@H]1[C@@H]2[C@@H](O)C[C@@]2(C)[C@H]1CC[C@]2(O)C(=O)CO [PREDNISOLONE] | 0.25 | 2.3 mL/min/kg |  |  |  |
| CCCc1cc(=O)[nH]c(=S)[nH]1 [PROPYLTHIOURACIL] | 0.18 | 3.1 mL/min/kg |  |  | Fg [9]: 0.97; Fh [10]: 0.87 |
| CC(C)c1nc(CN(C)C(=O)N[C@H](C(=O)N[C@@H](Cc2ccccc2)C[C@H](O)[C@H](Cc2ccccc2)NC(=O)OCc2cncs2)C(C)C)cs1 [RITONAVIR] |  | 1.2 mL/min/kg | 0.042 mL/min/kg | 1.2 mL/min/kg |  |
| O=C(O)c1cc(/N=N/c2ccc(S(=O)(=O)Nc3ccccn3)cc2)ccc1O [SULFASALAZINE] |  | 0.2 mL/min/kg | 0.1 mL/min/kg | 0.24 mL/min/kg |  |
| CN1C(C(=O)Nc2ccccn2)=C(O)c2sccc2S1(=O)=O [TENOXICAM] |  | 0.0297 mL/min/kg | 0.0003 mL/min/kg |  | F_fraction [7]: 1; Fa [8]: 1; Fg [9]: 1; Fh [10]: 1 |
| CCOC(=O)C1(c2ccccc2)CCC=CC1N(C)C (stereo not given) [TILIDINE] |  | 15.7 mL/min/kg | 0.3 mL/min/kg |  | Vd [6]: 4 L/kg; fraction unbound [4]: 0.21 |
| Clc1ccc2nsnc2c1NC1=NCCN1 [TIZANIDINE] |  | 10.7 mL/min/kg | 0.3 mL/min/kg |  | F_fraction [7]: 0.21; Fa [8]: 1; Fg [9]: 0.39; Fh [10]: 0.54 |
| GENTAMICIN | 1 | 0.3 mL/min/kg |  |  |  |
